Experimental data: ChEMBL document CHEMBL1201862, “PubChem BioAssay data set” (2004)
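Results reflect a 48-hour exposure of cells in 96-well plates to compound at five concentrations. At the GI50, growth is halved.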 Calls of active or inactive are those of the source. Cut-off read from the data, not from the text of the source: active = GI50 up to about 1.1 µM and inactive = higher.

Assays:
Assay in all cases: NCI tumour cell line growth inhibition, 48 h
DLD-1 = test system: DLD-1
UO-31 = test system: UO-31
CCRF-CEM = test system: CCRF-CEM
A498 = test system: A498
NCI-H226 = test system: NCI-H226
DMS-273 = test system: DMS-273
HOP-62 = test system: HOP-62
HCC 2998 = test system: HCC 2998
OVCAR-5 = test system: OVCAR-5
SK-MEL-2 = test system: SK-MEL-2
KM12 = test system: KM12
HCT-15 = test system: HCT-15
786-0 = test system: 786-0
HL-60 = test system: HL-60
SNB-19 = test system: SNB-19
RPMI-8226 = test system: RPMI-8226
A549 = test system: A549
RXF 631 = test system: RXF 631
ACHN = test system: ACHN
SF-539 = test system: SF-539
COLO 205 = test system: COLO 205
HCT-116 = test system: HCT-116
EKVX = test system: EKVX
NCI-H522 = test system: NCI-H522
SK-MEL-28 = test system: SK-MEL-28
HOP-92 = test system: HOP-92
SF-295 = test system: SF-295
NCI-H23 = test system: NCI-H23
K562 = test system: K562
UACC-62 = test system: UACC-62
CAKI-1 = test system: CAKI-1
SK-MEL-5 = test system: SK-MEL-5
HT-29 = test system: HT-29
UACC-257 = test system: UACC-257
KM-20L2 = test system: KM-20L2
HOP-18 = test system: HOP-18
U-251 = test system: U-251
SF-268 = test system: SF-268
SNB-75 = test system: SNB-75
DMS-114 = test system: DMS-114
OVCAR-8 = test system: OVCAR-8
TK-10 = test system: TK-10
MOLT-4 = test system: MOLT-4
M19-MEL = test system: M19-MEL
SW-620 = test system: SW-620
OVCAR-4 = test system: OVCAR-4
SN12C = test system: SN12C
LXFL 529 = test system: LXFL 529
Malme-3M = test system: Malme-3M
XF498 = test system: XF498
IGROV-1 = test system: IGROV-1
M14 = test system: M14
NCI-H460 = test system: NCI-H460
SNB-78 = test system: SNB-78
OVCAR-3 = test system: OVCAR-3
SK-OV-3 = test system: SK-OV-3
LOX IMVI = test system: LOX IMVI
SR = test system: SR
RXF 393 = test system: RXF 393

Measured: GI50

C/C(CC(=O)CCC(=O)Nc1cccc(C(F)(F)F)c1)=N\NC(=O)NN
inactive: DLD-1 > 100 µM | UO-31 > 100 µM | CCRF-CEM > 100 µM | A498 > 100 µM | NCI-H226 > 100 µM | DMS-273 > 100 µM | HOP-62 > 100 µM | HCC 2998 > 100 µM | OVCAR-5 > 100 µM | SK-MEL-2 > 100 µM | KM12 > 100 µM | 786-0 > 100 µM | HL-60 > 100 µM | SNB-19 > 100 µM | RPMI-8226 > 100 µM | A549 > 100 µM | RXF 631 > 100 µM | ACHN > 100 µM | SF-539 > 100 µM | COLO 205 > 100 µM | HCT-116 > 100 µM | EKVX > 100 µM | NCI-H522 > 100 µM | SK-MEL-28 > 100 µM | HOP-92 > 100 µM | SF-295 > 100 µM | NCI-H23 > 100 µM | K562 > 100 µM | UACC-62 > 100 µM | CAKI-1 > 100 µM | SK-MEL-5 > 100 µM | HT-29 > 100 µM | UACC-257 > 100 µM | KM-20L2 > 100 µM | HOP-18 > 100 µM | U-251 > 100 µM | SF-268 > 100 µM | SNB-75 > 100 µM | DMS-114 > 100 µM | OVCAR-8 > 100 µM | TK-10 > 100 µM | MOLT-4 > 100 µM | M19-MEL > 100 µM | SW-620 > 100 µM | OVCAR-4 > 100 µM | SN12C > 100 µM | LXFL 529 > 100 µM | Malme-3M > 100 µM | XF498 > 100 µM | IGROV-1 > 100 µM | M14 > 100 µM | NCI-H460 > 100 µM | SNB-78 > 100 µM | OVCAR-3 > 100 µM | SK-OV-3 > 100 µM
> 100 µM: HCT-15

CC[As](CC)SCC1OC(OC(C)=O)C(OC(C)=O)C(OC(C)=O)C1OC(C)=O (configuration not stated)
inactive: DLD-1 16.1 µM | UO-31 16.2 µM | CCRF-CEM 3.05 µM | A498 20.6 µM | NCI-H226 14.3 µM | DMS-273 15.6 µM | HOP-62 20.8 µM | HCC 2998 17.5 µM | OVCAR-5 18.3 µM | SK-MEL-2 12.6 µM | KM12 19.5 µM | LOX IMVI 15.2 µM | 786-0 14.4 µM | HL-60 3.16 µM | SNB-19 17.9 µM | RPMI-8226 6.58 µM | A549 21 µM | RXF 631 2.67 µM | ACHN 17.4 µM | SF-539 13.1 µM | COLO 205 2.42 µM | HCT-116 17.1 µM | EKVX 21.4 µM | NCI-H522 1.75 µM | SK-MEL-28 4.01 µM | HOP-92 3.15 µM | SF-295 18.9 µM | NCI-H23 13.5 µM | K562 4.38 µM | UACC-62 13.9 µM | CAKI-1 2.84 µM | SK-MEL-5 15.1 µM | HT-29 21.5 µM | UACC-257 14.2 µM | KM-20L2 18.7 µM | HOP-18 16.1 µM | U-251 12.8 µM | SF-268 11.6 µM | SNB-75 25.5 µM | DMS-114 4.81 µM | OVCAR-8 16 µM | TK-10 16.6 µM | SR 12 µM | MOLT-4 16.5 µM | RXF 393 3.26 µM | M19-MEL 11.8 µM | SW-620 4.74 µM | OVCAR-4 21.9 µM | SN12C 14.4 µM | LXFL 529 1.92 µM | Malme-3M 3.53 µM | XF498 17.7 µM | IGROV-1 18.3 µM | M14 12.3 µM | NCI-H460 16.8 µM | SNB-78 10.4 µM | OVCAR-3 14.4 µM | SK-OV-3 15.8 µM
13.6 µM: HCT-15

O=C1[C@H]2ON(c3ccccc3)C(c3ccccc3F)[C@H]2C(=O)N1c1ccc(Cc2ccc(N3C(=O)[C@@H]4ON(c5ccccc5)C(c5ccccc5F)[C@@H]4C3=O)cc2)cc1 (some centres not stated)
inactive: DLD-1 > 100 µM | UO-31 > 100 µM | CCRF-CEM > 100 µM | A498 > 100 µM | NCI-H226 > 100 µM | DMS-273 46.1 µM | HOP-62 > 100 µM | HCC 2998 > 100 µM | OVCAR-5 > 100 µM | SK-MEL-2 > 100 µM | KM12 > 100 µM | LOX IMVI 63.8 µM | 786-0 > 100 µM | HL-60 > 100 µM | RPMI-8226 > 100 µM | A549 > 100 µM | RXF 631 > 100 µM | ACHN > 100 µM | SF-539 > 100 µM | COLO 205 > 100 µM | SK-MEL-28 > 100 µM | HOP-92 21.5 µM | SF-295 67.1 µM | NCI-H23 > 100 µM | K562 > 100 µM | UACC-62 > 100 µM | CAKI-1 > 100 µM | SK-MEL-5 > 100 µM | HT-29 > 100 µM | UACC-257 45.1 µM | KM-20L2 > 100 µM | HOP-18 > 100 µM | U-251 > 100 µM | SF-268 > 100 µM | SNB-75 > 100 µM | DMS-114 > 100 µM | MOLT-4 > 100 µM | RXF 393 55.2 µM | M19-MEL > 100 µM | SW-620 > 100 µM | OVCAR-4 > 100 µM | SN12C > 100 µM | LXFL 529 > 100 µM | Malme-3M > 100 µM | XF498 > 100 µM | IGROV-1 > 100 µM | M14 34.8 µM | NCI-H460 > 100 µM | SNB-78 > 100 µM | OVCAR-3 > 100 µM | SK-OV-3 > 100 µM
> 100 µM: HCT-15
